From patent US7235588B2, “Method for reducing hypertension and heart failure” (The Research Foundation of State University of New York, priority 2001, dated 2007)
“Also recorded” adds a separate entry of the source.

Key:
[1] = test system: rat hearts; test: Myocardial infarct size (triphenyl tetrazolium staining) after ischemia/reperfusion; settings: FIG. 4B
Procedure: To gain insight into the physiological basis for cardioprotection afforded by tyrphostin AG490, the extent of cardiomyocyte infarct size and apoptosis were measured. On termination of treatment with tyrphostin AG490, hearts were immersed in 1% triphenyl tetrazolium solution in phosphate buffer (Na2HPO4 88 mmol/l, NaH2PO4 1.8 mmol/l) for 10 min. at 37° C. and stored at −70° C. for processing. Frozen hearts (ventricular tissue) were sliced transversely in a plane perpendicular to the apicobasal axis into 0.5 mm thick sections, blotted dry, placed between microscope slides, and scanned on a Hewlett-Packard Scanjet 5 p single-pass flatbed scanner. With the NIH 1.61 image processing software, each digitized image was subjected to equivalent degrees of background subtraction, brightness, and contrast enhancement for improved clarity and distinctness. Risk (equivalent to total left ventricular muscle mass) and infarct zones of each slice were traced, and the respective areas were calculated in terms of pixels. The weight of each slice was then recorded to facilitate the expression of total and infarct masses of each slice in grams. The risk and infarct volumes of each slice in cubic centimeters were then calculated on the basis of slice weight to correct for any errors due to nonuniformity of heart slice thickness. […]

[2] = test system: spontaneously hypertensive rats; test: Blood pressure in spontaneously hypertensive rats; assay type: in vivo, rat; settings: 5 micromoles, FIG. 9
Procedure: Adult spontaneously hypertensive rats, which are genetically predisposed to hypertension, and normotensive rats were anesthetized with pentobarbital sodium (65 mg/kg ip) in preparation for surgery. […] Teflon arterial catheter (ID […]) was inserted into the left femoral artery. The catheter was tunneled under the skin and exited at the nape of the rat's neck and connected to a 26 G needle capped on a port and flushed with 1:3 heparin saline. The rats were housed individually after surgery, and allowed 48 hours to recover from the operation. Systolic and diastolic blood pressure were directly measured using the connection to the port placed in the rat's neck to a manual transducer.

[3] = test system: male C57/BL6 mice; test: Transverse aortic constriction (TAC) induced left ventricular hypertrophy in mice; assay type: in vivo
Procedure: Pressure overload was produced by transverse aortic constriction (TAC) to induce left ventricular hypertrophy (FIG. 1). Briefly, male C57/BL6 mice, weighing 20 to 24 grams, were anesthetized by intra-peritoneal injection of a cocktail of ketamine (100 mg/kg) and xylazine ([…]). The mice were shaved, restrained, and orally intubated (under direct vision via a vertical cervical incision) using a 22 guage blunt feeding needle. Respiration was artificially controlled (tidal volume of 0.1 to 0.3 ml) at a respiratory rate of 110 to 150 breaths/minute using a ventilator (Harvard Apparatus Rodent Ventilator, model 683). A median sternotomy was performed and the sternum retracted. The thymus was retracted anteriorly and the aortic arch identified and ligated (using 8.0 nylon suture; Ethicon) between the innominate and left common carotid artery with an overlying 27-guage needle; and then the needle removed to leave a discrete region of stenosis. The chest was then closed in two layers (using 6.0 vicryl suture, Ethicon) and the pneumothorax evacuated. Some mice were subjected to a sham operation in which the aortic arch was visualized but not banded. The mice were then extubated and monitored post-op for 3 to 12 hours. The survival rate at the end of the learning period is greater than 90%.
Nine days post-op, the hearts were removed from heparinized (500 U) mice and euthanized with a lethal dose of pentobarbital (150 mg/kg). The hearts were analyzed by visual inspection of a cross-section of the heart (FIG. 2A), determination of heart to body weight ratio (FIG. 2B), and light microscopy of the cardiomyocytes in the left ventricular (FIG. 2C), and activation of artiel natuiretic factor (ANF), a specific molecular marker for hypertrophy (FIG. 3). Based on these determinations, all trans-aortic constricted mice developed well-defined left ventricular hypertrophy.
To determine whether tyrphostin AG490 could reverse the hypertrophy induced by traverse aortic constriction, tyrphostin AG490 (5 μM) was administered to the mice, intra-peritoneal, 24 hours before being subjected to transverse aortic constriction and every 24 hours thereafter for the duration of the study (9 days).

[4] = biological target: T1, Jak2 (Rattus norvegicus, UniProt Q62689); test: Phosphotyrosine assay of Jak2 in hearts subjected to ischemia/reperfusion; settings: ischemic heart, FIG. 6A
T1 construct: nuclear extracts from hearts subjected to ischemia/reperfusion in presence of absence of tyrphostin AG490 were immunoprecipitated; from tissue; host or cells: rat heart (nuclear extracts)
T1 sequence (Q62689 whole entry, the tested form may be a part): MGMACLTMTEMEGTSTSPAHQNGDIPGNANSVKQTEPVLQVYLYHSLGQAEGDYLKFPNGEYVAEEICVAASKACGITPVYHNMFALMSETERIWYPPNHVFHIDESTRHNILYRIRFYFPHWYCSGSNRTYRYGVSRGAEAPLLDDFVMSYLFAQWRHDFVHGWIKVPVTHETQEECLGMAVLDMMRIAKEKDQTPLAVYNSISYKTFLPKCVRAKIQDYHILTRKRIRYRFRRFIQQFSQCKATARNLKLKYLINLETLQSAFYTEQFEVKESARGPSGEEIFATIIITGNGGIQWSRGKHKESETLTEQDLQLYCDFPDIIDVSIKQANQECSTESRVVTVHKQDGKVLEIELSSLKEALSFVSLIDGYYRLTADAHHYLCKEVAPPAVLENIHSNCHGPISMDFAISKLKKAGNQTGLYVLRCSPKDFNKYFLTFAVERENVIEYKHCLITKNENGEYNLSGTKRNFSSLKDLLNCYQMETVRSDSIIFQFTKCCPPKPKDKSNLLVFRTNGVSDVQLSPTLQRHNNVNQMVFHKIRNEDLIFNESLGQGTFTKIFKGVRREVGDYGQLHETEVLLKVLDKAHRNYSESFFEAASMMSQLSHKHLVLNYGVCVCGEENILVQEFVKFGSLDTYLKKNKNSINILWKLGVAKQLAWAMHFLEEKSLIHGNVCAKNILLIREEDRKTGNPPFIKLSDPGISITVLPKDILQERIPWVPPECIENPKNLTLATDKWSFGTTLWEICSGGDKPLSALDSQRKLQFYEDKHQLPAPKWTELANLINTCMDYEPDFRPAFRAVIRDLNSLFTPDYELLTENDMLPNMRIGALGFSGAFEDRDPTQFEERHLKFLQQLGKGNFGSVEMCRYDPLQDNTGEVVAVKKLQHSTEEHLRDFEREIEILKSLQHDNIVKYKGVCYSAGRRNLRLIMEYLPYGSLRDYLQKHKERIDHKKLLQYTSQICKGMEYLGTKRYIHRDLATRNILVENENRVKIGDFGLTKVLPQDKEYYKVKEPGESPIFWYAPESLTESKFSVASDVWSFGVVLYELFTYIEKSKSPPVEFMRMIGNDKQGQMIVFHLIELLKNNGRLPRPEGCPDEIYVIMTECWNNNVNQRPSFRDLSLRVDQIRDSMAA
Procedure: Rats were pretreated with 5 or 50 μmol/L of tyrphostin AG490 24 h prior to ischemia/reperfusion followed by chronic administration of tyrphostin AG490 during the process of ischemia/reperfusion. A phosphotyrosine assay was performed. Briefly, nuclear extracts from hearts subjected to ischemia/reperfusion in presence of absence of tyrphostin AG490 were immunoprecipitated with anti-phosphotyrosine antibodies (4G10). Fifty microliters of 50% protein A-agarose, prewashed in lysis buffer (Upstate Biotechnology) was then added and the mixture was incubated for 2 hr at 4° C. Each sample was washed with washing buffer containing 150 mM NaCl, 50 mM Tris-HCL (pH 7.4), 5 mM EDTA, 0.25% Triton X-100, 2 mM phenylmethylsulfonyl fluoride, aprotinin (0.2 unit/ml), 1 mM Na3VO4, and 1 mM NaF. Samples were eluted in 2× Laernmli's sample buffer. Proteins were separated on a 7.5% SDS/polyacrylamide gel and transferred to nitrocellulose membrane, Nitropure (Micron Separations, Westboro, Mass.). Blots were probed with polyclonal antibody against Jak2 and developed according to the chemiluminescence protocol. Administration of tyrphostin AG490 in perfusion medium was inhibitory at both 5 and 50 μmol/L for pliosphorylation of Jak2, which was activated readily in the ischemic heart in absence of the inhibitor (FIG. 6A).

N#C/C(=C\c1ccc(O)c(O)c1)C(=O)NCc1ccccc1 [tyrphostin AG490]
myocardial infarct size [1]: reduced myocardial infarct size; also recorded: reduction of infarct size
blood pressure [2]: effective in lowering blood pressure to normal levels; also recorded: attenuation of hypertension
reversal of hypertrophy induced by transverse aortic constriction ([3]; 5 μM intra-peritoneal, 24 h before TAC and every 24 h for 9 days): remarkable reversal of hypertrophy
LVH by visual inspection of cross section of the heart ([3]; FIG. 2A, TAC mice): decrease in LVH
ratio of heart weight to body weight ([3]; FIG. 2B, TAC mice): decrease in ratio of heart weight to body weight
hypertrophy of cardiomyocytes of left ventricle by light microscopy ([3]; FIG. 2C, TAC mice): decrease in hypertrophy
ANF (atrial natriuretic factor, marker for hypertrophy) ([3]; FIG. 3, during cardiac hypertrophy): ANF inhibition
phosphorylation of Jak2 ([4]; 5 μmol/L in perfusion medium): inhibitory
phosphorylation of Jak2 ([4]; 50 μmol/L in perfusion medium): inhibitory
